Data: paper PMC10999543, “Identification of kinase modulators as host-directed therapeutics against intracellular methicillin-resistant Staphylococcus aureus” (Frontiers in Cellular and Infection Microbiology, 2024)

Legend:
AMPK = tested on: AMPK; design: method as in Elkins et al., 2016; conditions: ref Elkins et al., 2016; cited from earlier work
[1] = tested on: bioluminescent strain of MRSA; assay: Real-time bioluminescence of MRSA-lux after infection of HeLa cells; assay type: cell-based, Staphylococcus aureus; conditions: 10 µM, infected HeLa cells
Experimental: The cells were resuspended in cell culture medium without antibiotics, seeded with 10,000 cells/well into Costar flat-bottom 96-well plates (Corning, Amsterdam, the Netherlands), and were incubated overnight at 37°C/5% CO2. The next day, the bacteria were centrifuged at ≥1800 g for 15 min and resuspended in cold PBS + 5 mM ethylenediaminetetraacetic acid (EDTA). The number of CFUs present in the bacterial suspension was estimated from the optical density at 600 nm (OD600) by assuming 8x10^8 CFUs to be present in a bacterial suspension with OD600 = 1, based on prior titrations. The bacterial suspension was diluted in cell culture medium without antibiotics and added to the cells. […] The calculated mean MOI throughout all experiments was 6.8 ± 4.6 (mean ± SD). […]
MRSA cultures at a concentration corresponding to an absorbance of 0.1 at 600 nm were incubated with the kinase inhibitors at 10 μM in flat-bottom 96-well plates. The absorbance was measured using an EnVision plate reader (PerkinElmer). The plates were incubated at 37°C overnight and the absorbance was measured again the next day. Real-time measurement of bioluminescence by the MRSA-lux strain was performed in a white flat-bottom 96-wells plate using a SpectraMax i3x plate reader and an integration time set at 9000 ms.

[2] = tested on: other strains of S. aureus; assay: CFU count in HeLa cells infected with other strains of S. aureus; assay type: cell-based, Staphylococcus aureus; conditions: Supplementary Figure S8A
Experimental: The cells were resuspended in cell culture medium without antibiotics, seeded with 10,000 cells/well into Costar flat-bottom 96-well plates (Corning, Amsterdam, the Netherlands), and were incubated overnight at 37°C/5% CO2. The next day, the bacteria were centrifuged at ≥1800 g for 15 min and resuspended in cold PBS + 5 mM ethylenediaminetetraacetic acid (EDTA). The number of CFUs present in the bacterial suspension was estimated from the optical density at 600 nm (OD600) by assuming 8x10^8 CFUs to be present in a bacterial suspension with OD600 = 1, based on prior titrations. The bacterial suspension was diluted in cell culture medium without antibiotics and added to the cells. Accuracy of the multiplicity of infection (MOI) was validated by plating serial dilutions of the MRSA inoculums on Difco TS agar plates (BD Biosciences). The calculated mean MOI throughout all experiments was 6.8 ± 4.6 (mean ± SD). Infected cells were centrifuged for 3 min at 150 g and incubated for 1 hour at 37°C/5% CO2. Next, the cells were incubated with fresh cell culture medium supplemented with 30 µg/ml gentamicin sulphate (Lonza BioWhittaker, Basel, Switzerland) for 15 min at 37°C/5% CO2 to kill residual extracellular bacteria. […]

LC3 = assay: Autophagosome formation by western blot (LC3-II/LC3-I); assay type: cell-based, human; conditions: MRSA-infected HeLa cells
Experimental: HeLa cells were seeded with 100,000 cells/well in 24-wells plates. In short, the cells were lysed in EBSB buffer (10% v/v glycerol, 3% SDS, 100 mM Tris-HCl, pH 6.8) supplemented with one tablet of cOmplete EDTA-free protease inhibitor cocktail (Sigma-Aldrich) and proteins were denaturated at 95°C for 5 min. Protein concentrations were determined using a Pierce™ BCA protein assay kit (Thermo Fisher Scientific). Samples were diluted in Laemmli sample buffer and loaded on a 15-well 4–20% Mini-PROTEAN® TGX™ Precast Protein Gel for electrophoresis (both from Bio-Rad, Hercules, CA, USA). […] Membranes were blocked for 1h in PBS supplemented with 5% w/v non-fat dry milk. Next, the membranes were cut and each protein was separately stained with primary antibodies against actin and LC3B in PBS supplemented with 5% w/v non-fat dry milk, or against AMPKα and AMPKα-pThr172 in PBS supplemented with 5% BSA (antibodies listed in Supplementary Table S1 ). Membranes were stained with secondary antibodies in PBS supplemented with 5% w/v non-fat dry milk. After each staining, membranes were washed four times in PBS + 0.1% Tween20. Prior to revelation, the membranes were incubated for 10 min in enhanced chemiluminescence (ECL) Prime Western Blotting System reagent (GE Healthcare, Hoevelaken, The Netherlands). […] Protein bands were quantified using Fiji software ([Schindelin et al., 2012]).

A549 cells = assay type: cell-based, human; conditions: 10 µM
Experimental: (§1) Before harvesting or lysing the cells of the intracellular infection assays, the supernatant from the cells was collected to quantify LDH release by the cells using the LDH cytotoxicity detection kit (Roche, Merck, Darmstadt, Germany) according to the manufacturer’s instructions. Triton X-100 results in maximum LDH release by permeabilizing the cells and was used as positive control. Quantification was performed with the EnVision plate reader.

MCF7 cells = assay type: cell-based, human; conditions: 10 µM
Experimental: as §1

Compound	action on AMPK in a biochemical assay (AMPK)	effect on bioluminescent MRSA growth over time [1]	activity against other strains of S. aureus (CFU) [2]	accumulation of LC3-II (LC3; in the presence of bafilomycin A1 (100 nM))	formation of LC3-II (LC3; without bafilomycin)	cell viability of MRSA-infected cells (LDH-release) (A549 cells)	cell viability of MRSA-infected cells (LDH-release) (MCF7 cells)
COc1ccc2[nH]c3c4[nH]c5ccc(OC)cc5c4c4c(c3c2c1)C(=O)NC4=O [GW296115X]	AMPK inhibitor	acts rapidly	active	strong accumulation of LC3-II	not affected	rescued the loss of viability	–
CC(C)c1nc(-c2cccc(NS(=O)(=O)c3c(F)cccc3F)c2F)c(-c2ccnc(Nc3ccc(N4CCOCC4)nc3)n2)s1 [GSK2008607A]	–	–	–	–	–	–	significantly improved the overall survival
